From patent EP4603105A1, “PHARMACEUTICAL COMPOSITION CONTAINING CYCLIC COMPOUND HAVING SELECTIVE KRAS INHIBITORY EFFECT AGAINST HRAS AND NRAS” (CHUGAI SEIYAKU KABUSHIKI KAISHA, priority 2022, dated 2024)
*1 amine or outer side, *2 acyl side, *3 side chain or, on linkers, in order; H or OH if unused. Where a SMILES comes first, the peptide text is derived from it. Bridges are numbered along the chain shown (N, C = ends). [ ]: non-standard residue; d: D form. The star is where a group is joined. hPhe(3,5-F2-4-CF3) = N[C@@H](CCc1cc(F)c(C(F)(F)F)c(F)c1)C(=O)O; hPhe(3-Cl-4-CF3) = N[C@@H](CCc1ccc(C(F)(F)F)c(Cl)c1)C(=O)O; NPrPhe(4-CF3) = CCCN[C@@H](Cc1ccc(C(F)(F)F)cc1)C(=O)O; X2 = C[C@@H]1CN([*:1])[C@@H]1C(=O)[*:2]; NMeGly(cPent) = CN[C@H](C(=O)O)C1CCCC1; X3 = CCC[C@](C)(N[*:1])C(=O)[*:2]; NMeD = CN[C@@H](CC(=O)O)C(=O)O; NMeL = CN[C@@H](CC(C)C)C(=O)O; Morpholide = C1CN(*)CCO1; Ac5c = NC1(C(=O)O)CCCC1; Aze = O=C(O)[C@@H]1CCN1; Sar = CNCC(=O)O

Key:
[1] = target: GDP-bound KRAS wild-type protein (Homo sapiens, UniProt P01116); assay: Binding to KRAS by surface plasmon resonance (SPR), dissociation constant KD
Chain of GDP-bound KRAS wild-type protein (P01116 1-188 isoform P01116-2): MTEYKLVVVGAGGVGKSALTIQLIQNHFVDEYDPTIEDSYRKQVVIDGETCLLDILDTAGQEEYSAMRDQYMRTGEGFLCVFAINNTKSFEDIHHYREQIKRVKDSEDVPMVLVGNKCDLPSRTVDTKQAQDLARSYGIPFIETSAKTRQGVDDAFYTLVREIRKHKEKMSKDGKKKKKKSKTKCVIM
How it was run: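 Each cycle, GDP-bound biotin-Avi RAS was captured (~100–300 RU), compound concentrations were injected low to high for 75 s each at 100 µL/min, then the chip was regenerated. Buffer: HBS pH 7.4, 10 mM MgCl2, 10 µM GDP, 1 mM DTT, 4% DMSO; 30°C. KD from a 1:1 binding model.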

[2] = target: GDP-bound NRAS wild-type protein (Homo sapiens, UniProt P01111); assay: Binding to NRAS by surface plasmon resonance (SPR), KD and KD ratio to KRAS
Chain of GDP-bound NRAS wild-type protein (P01111 whole entry): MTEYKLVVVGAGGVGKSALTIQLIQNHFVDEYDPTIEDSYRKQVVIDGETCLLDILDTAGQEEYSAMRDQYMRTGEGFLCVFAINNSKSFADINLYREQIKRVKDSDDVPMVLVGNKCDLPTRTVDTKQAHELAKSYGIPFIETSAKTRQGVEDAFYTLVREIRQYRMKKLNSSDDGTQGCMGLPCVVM
How it was run: (§1)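 Running buffer contained 10 µM GDP and 10 mM MgCl2 to keep RAS in the GDP state, with 4% DMSO at pH 7.4. Compounds were flowed at 100 µL/min in 75 s steps of rising concentration over captured biotin-Avi RAS at 30°C. Sensorgrams were fitted 1:1 for KD.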

HRAS wild-type protein = HRAS wild-type protein (Homo sapiens, UniProt P01112); assay: Binding to HRAS by surface plasmon resonance (SPR), KD and KD ratio to KRAS
Chain of HRAS wild-type protein (P01112 whole entry): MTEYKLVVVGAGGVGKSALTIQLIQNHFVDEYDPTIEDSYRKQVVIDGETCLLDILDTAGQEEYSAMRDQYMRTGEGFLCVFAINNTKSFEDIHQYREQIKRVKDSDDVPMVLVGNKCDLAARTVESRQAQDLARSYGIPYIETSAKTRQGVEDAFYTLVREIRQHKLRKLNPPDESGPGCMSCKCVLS
How it was run: as §1

[3] = system: human lung cancer strain NCI-H441; format: cell-based
How it was run: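 Step one: dispense the test compound in serial DMSO dilutions. Step three: add the reagent and measure […].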

[4] = ratio of KD for GDP-bound NRAS wild-type protein to KD for KRAS
[5] = ratio of KD for HRAS wild-type protein to KD for KRAS
[6] = Single Cycle Kinetics, 1:1 binding model
[7] = ratio of the KD value with respect to GDP-bound NRAS wild-type protein to the KD value with respect to KRAS
[8] = ratio of the KD value with respect to HRAS wild-type protein to the KD value with respect to KRAS

Structure (SMILES)	Kd ([1]; 1:1 binding model)	NRAS /KRAS [2, 4]	HRAS /KRAS (HRAS wild-type protein; [5])	IC50 [3]	Kd ([1]; Single Cycle Kinetics)	Kd [1, 6]	NRAS /KRAS [2, 7]	HRAS /KRAS (HRAS wild-type protein; [8])	NRAS /KRAS ([2]; ratio of KD value for GDP-bound NRAS wild-type protein to KD value for KRAS (SPR))	HRAS /KRAS (HRAS wild-type protein; ratio of KD value for HRAS wild-type protein to KD value for KRAS (SPR))
CCO[C@@H]1C[C@H]2C(=O)NC3(CC(C)(C)C3)C(=O)N(C)[C@@H](C3CCCC3)C(=O)N(C)[C@H](C(=O)N(C)C)CC(=O)N(C)[C@@H]([C@@H](C)OC)C(=O)N[C@@H]([C@@H](C)CC)C(=O)N3CCC[C@H]3C(=O)N(C)[C@H]3C/C=C\CCN(C3=O)[C@@H](Cc3ccc(C)cc3)C(=O)N(C)CC(=O)N[C@@H](CCc3cc(F)c(C(F)(F)F)c(F)c3)C(=O)N2C1 [PP3214]	0.48 nM	A (a compound having 10 or more and less than 20 is denoted as A)	A (a compound having 10 or more and less than 20 is denoted as A)	45.8 nM	–	–	–	–	–	–
CCCN1C(=O)CN(C)C(=O)[C@@H]2CCN2C(=O)[C@H]([C@@H](C)CC)NC(=O)[C@H](CC(C)C)N(C)C(=O)C[C@@H](C(=O)N2CCOCC2)N(C)C(=O)[C@H](C2CCCC2)N(C)C(=O)[C@](C)(CCC)NC(=O)[C@@H]2CCCN2C(=O)[C@H](CCc2cc(F)c(C(F)(F)F)c(F)c2)NC(=O)CN(C)C(=O)[C@@H]1Cc1ccc(C(F)(F)F)cc1 [PP0775] ([NMeL]I[Aze][Sar][NPrPhe(4-CF3)][Sar][hPhe(3,5-F2-4-CF3)]P[X3][NMeGly(cPent)][NMeD]-Morpholide; lactam N-11)	–	B (a compound having 3 or more and less than 10 is denoted as B)	B (a compound having 3 or more and less than 10 is denoted as B)	417 nM	9.2 nM	–	–	–	–	–
CCO[C@@H]1C[C@H]2C(=O)NC3(CCC3)C(=O)N(C)[C@@H](C3CCCC3)C(=O)N(C)[C@H](C(=O)N(C)CC)CC(=O)N(C)[C@@H](CC3CCC3)C(=O)N[C@@H]([C@@H](C)CC)C(=O)N(C)CC(=O)N(C)[C@H]3C/C=C\CCN(C3=O)[C@@H](Cc3ccc(C(F)(F)F)cc3)C(=O)N(C)CC(=O)N[C@@H](CCc3ccc(Cl)c(Cl)c3)C(=O)N2C1 [PP2824]	0.44 nM	A (a compound having 10 or more and less than 20 is denoted as A)	A (a compound having 10 or more and less than 20 is denoted as A)	23.4 nM	–	–	–	–	–	–
CCC[C@H]1C(=O)N[C@@H]([C@@H](C)CC)C(=O)N(C2CC2)CC(=O)N(C)[C@H]2C/C=C\CCN(C2=O)[C@@H](Cc2ccc(C)cc2)C(=O)N(C)CC(=O)N[C@@H](CCc2ccc(C(F)(F)F)c(OC)c2)C(=O)N2C[C@H](OCC)C[C@H]2C(=O)N(C)C2(CCC2)C(=O)N(C)[C@@H](C(CC)CC)C(=O)N(C)[C@H](C(=O)N(C)C)CC(=O)N1C [PP2325]	–	–	–	8.2 nM	–	0.4 nM	A (a compound having 10 or more and less than 20 is denoted as A)	A (a compound having 10 or more and less than 20 is denoted as A)	–	–
CCO[C@@H]1C[C@H]2C(=O)NC3(CC(C)(C)C3)C(=O)N(C)[C@@H](C3CCCC3)C(=O)N(C)[C@H](C(=O)N(C)C)CC(=O)N(C)[C@@H]([C@@H](C)OC)C(=O)N[C@@H]([C@@H](C)CC)C(=O)N3CCC[C@H]3C(=O)N(C)[C@H]3C/C=C\CCN(C3=O)[C@@H](Cc3ccc(C(F)(F)F)cc3)C(=O)N(C)CC(=O)N[C@@H](CCc3cc(F)c(C(F)(F)F)c(F)c3)C(=O)N2C1 [PP3205]	0.39 nM	A (a compound having 10 or more and less than 20 is denoted as A)	A (a compound having 10 or more and less than 20 is denoted as A)	18.4 nM	–	–	–	–	–	–
CCCN1C(=O)CN(C)C(=O)[C@@H]2[C@H](C)CN2C(=O)[C@H]([C@@H](C)CC)NC(=O)[C@H](CC(C)C)N(C)C(=O)C[C@@H](C(=O)N2CCOCC2)N(C)C(=O)[C@H](C2CCCC2)N(C)C(=O)C2(CCCC2)NC(=O)[C@@H]2CCCN2C(=O)[C@H](CCc2ccc(C(F)(F)F)c(Cl)c2)NC(=O)CN(C)C(=O)[C@@H]1Cc1ccc(C(F)(F)F)cc1 [PP0257] ([NMeL]I[X2][Sar][NPrPhe(4-CF3)][Sar][hPhe(3-Cl-4-CF3)]P[Ac5c][NMeGly(cPent)][NMeD]-Morpholide; lactam N-11)	1.4 nM	B (a compound having 3 or more and less than 10 is denoted as B)	B (a compound having 3 or more and less than 10 is denoted as B)	30.8 nM	–	–	–	–	–	–
CC[C@H](C)[C@@H]1NC(=O)[C@H](CC(C)C)N(C)C(=O)C[C@@H](C(=O)N2CCOCC2)N(C)C(=O)[C@H](C2CCCC2)N(C)C(=O)C2(CCCC2)NC(=O)[C@@H]2CCCN2C(=O)[C@H](CCc2cc(F)c(C(F)(F)F)c(F)c2)NC(=O)CN(C)C(=O)[C@H](Cc2ccc(F)cc2)N2CCCCC[C@@H](C2=O)N(C)C(=O)CN(C)C1=O [PP0964]	–	B (a compound having 3 or more and less than 10 is denoted as B)	B (a compound having 3 or more and less than 10 is denoted as B)	56.6 nM	0.59 nM	–	–	–	–	–
CCO[C@@H]1C[C@H]2C(=O)NC3(CC(C)(C)C3)C(=O)N(C)[C@@H](C3CCCC3)C(=O)N(C)[C@H](C(=O)N(C)C)CC(=O)N(C)[C@@H]([C@@H](C)OC)C(=O)N[C@@H]([C@@H](C)CC)C(=O)N(C3CC3)CC(=O)N(C)[C@H]3C/C=C\CCN(C3=O)[C@@H](Cc3ccc(C(F)(F)F)cc3)C(=O)N(C)CC(=O)N[C@@H](CCc3ccc(C(F)(F)F)c(OC)c3)C(=O)N2C1 [PP3200]	0.21 nM	A (a compound having 10 or more and less than 20 is denoted as A)	A (a compound having 10 or more and less than 20 is denoted as A)	7.1 nM	–	–	–	–	–	–
CCCN(C)C(=O)[C@@H]1CC(=O)N(C)[C@@H](C2CCC2)C(=O)N[C@@H]([C@@H](C)CC)C(=O)N(C)CC(=O)N(C)[C@H]2C/C=C\CCN(C2=O)[C@@H](Cc2ccc(C(F)(F)F)cc2)C(=O)N(C)CC(=O)N[C@@H](CCc2ccc(C(F)(F)F)c(OC)c2)C(=O)N2C[C@H](OCC)C[C@H]2C(=O)NC2(CCC2)C(=O)N(C)[C@@H](C2CCCC2)C(=O)N1C [PP2023]	–	–	–	10.5 nM	–	0.11 nM	A (a compound having 10 or more and less than 20 is denoted as A)	B (a compound having 3 or more and less than 10 is denoted as B)	–	–
CC[C@H](C)[C@@H]1NC(=O)[C@H](Cc2cccc(Cl)c2)N(C)C(=O)C[C@@H](C(=O)N2CCOCC2)N(C)C(=O)[C@H](C2CCCC2)N(C)C(=O)C2(CCCC2)NC(=O)[C@@H]2CCCN2C(=O)[C@H](CCc2ccc(C(F)(F)F)c(Cl)c2)NC(=O)CN(C)C(=O)[C@H](Cc2ccc(F)cc2)N2CCCCC[C@@H](C2=O)N(C)C(=O)CN(C)C1=O [PP0963]	–	B (a compound having 3 or more and less than 10 is denoted as B)	B (a compound having 3 or more and less than 10 is denoted as B)	100 nM	0.78 nM	–	–	–	–	–
CCO[C@@H]1C[C@H]2C(=O)NC3(CC(C)(C)C3)C(=O)N(C)[C@@H](C3CCCC3)C(=O)N(C)[C@H](C(=O)N(C)CC)CC(=O)N(C)[C@@H]([C@H](C)OC)C(=O)N[C@@H]([C@@H](C)CC)C(=O)N(C3CC3)CC(=O)N(C)[C@H]3C/C=C\CCN(C3=O)[C@@H](Cc3ccc(C)cc3)C(=O)N(C)CC(=O)N[C@@H](CCc3ccc(C(F)(F)F)c(Cl)c3)C(=O)N2C1 [PP3159]	0.6 nM	A (a compound having 10 or more and less than 20 is denoted as A)	A (a compound having 10 or more and less than 20 is denoted as A)	50.1 nM	–	–	–	–	–	–
CCO[C@@H]1C[C@H]2C(=O)NC3(CCC3)C(=O)N(C)[C@@H](C(CC)CC)C(=O)N(C)[C@H](C)CC(=O)N(C)[C@@H](CC(C)C)C(=O)N[C@@H]([C@@H](C)CC)C(=O)N(C)CC(=O)N(C)[C@H]3C/C=C\CCN(C3=O)[C@@H](Cc3ccc(F)cc3C)C(=O)N(C)CC(=O)N[C@@H](CCc3cc(F)c(C(F)(F)F)c(F)c3)C(=O)N2C1 [PP1524]	–	–	–	439 nM	–	5.7 nM	–	–	B (a compound having 3 or more and less than 10 is denoted as B)	B (a compound having 3 or more and less than 10 is denoted as B)
CCO[C@@H]1C[C@H]2C(=O)NC3(CC(C)(C)C3)C(=O)N(C)[C@@H](C3CCCC3)C(=O)N(C)[C@H](C(=O)N(C)CC)CC(=O)N(C)[C@@H]([C@@H](C)OC)C(=O)N[C@@H]([C@@H](C)CC)C(=O)N3CCC[C@H]3C(=O)N(C)[C@H]3C/C=C\CCN(C3=O)[C@@H](Cc3ccc(C)cc3)C(=O)N(C)CC(=O)N[C@@H](CCc3cc(F)c(C(F)(F)F)c(F)c3)C(=O)N2C1 [PP3190]	0.87 nM	A (a compound having 10 or more and less than 20 is denoted as A)	B (a compound having 3 or more and less than 10 is denoted as B)	29.9 nM	–	–	–	–	–	–
CCO[C@@H]1C[C@H]2C(=O)NC3(CC(C)(C)C3)C(=O)N(C)[C@@H](C3CCCC3)C(=O)N(C)[C@H](C(=O)N(C)CC)CC(=O)N(C)[C@@H]([C@@H](C)OC)C(=O)N[C@@H]([C@@H](C)CC)C(=O)N(C)CC(=O)N(C)[C@H]3C/C=C\CCN(C3=O)[C@@H](Cc3ccc(C(F)(F)F)cc3)C(=O)N(C)CC(=O)N[C@@H](CCc3cc(F)c(C(F)(F)F)c(F)c3)C(=O)N2C1 [PP3160]	0.07 nM	A (a compound having 10 or more and less than 20 is denoted as A)	A (a compound having 10 or more and less than 20 is denoted as A)	13.2 nM	–	–	–	–	–	–
